Measured values reported in article PMC6912754, “Identification of A Novel Class of Benzofuran Oxoacetic Acid-Derived Ligands that Selectively Activate Cellular EPAC1” (Cells, 2019).

Biological target: T1, EPAC2-CNBD (Homo sapiens, UniProt Q8WZA2)
T1 construct: gene RAPGEF4
Experiment: biochemical
Set-up: 8-NBD-cAMP competition binding to GST-CNBD, fluorescence intensity 480/535 nm, dose response
Conditions: 8-NBD-cAMP displacement, mean; read-out: Pharmacology assay data / EPAC2 pIC50 (mean) (converted)
Experimental: 8-(2-[7-nitro-4-benzofurazanyl] aminoethylthio) adenosine-3′,5′-cyclic monophosphate (8-NBD-cAMP) competition assays were performed with purified EPAC1-CNBD and EPAC2-CNBD GST-fusion proteins as previously described. Comparison of reference molecules, dose response curves (DRC) and pilot screens were done in black, low volume 384 assay plates (Greiner). Plates were incubated for 4 h before 8-NBD-cAMP fluorescence intensity at 480/535 nm (ex/em) was measured using the Envision multi-label plate reader (Perkin-Elmer; Waltham, MA, USA). EPAC1-CNBD (amino acids 169–318 of EPAC1) and EPAC2-CNBD (amino acids 304-453) cDNAs were previously sub-cloned into the multi-cloning site of the pGEX-6P-1 expression vector (GE Healthcare) by BC Bioscienes (Dundee, Scotland). Ral-GDS-RBD (amino acids 788-884) was cloned into pGEX-5X-1 as described. Recombinant EPAC1-CNBD, EPAC2-CNBD, EPAC1 (amino acids 149–881), Ral-GDS-RBD (amino acids 788-884), and Rap1B (amino acids 1–167) glutathione S-transferase (GST)-fusion proteins were then expressed and purified from BL-21 Escherichia coli, as previously described. Protein concentrations were determined by the bicinchoninic acid (BCA) assay or by Nanodrop 2000/2000c (Thermo Scientific). All recombinant proteins were determined to be pure by SDS-PAGE analysis. Proteins were stored in aliquots at −80 °C until required. Preliminary SAR on a benzofuran oxo-acetic acid series, based on SY000, was done using 8NBD-cAMP binding to EPAC1 and EPAC2 CNBDs, as summarized in the Supplementary Table, Supplementary Figures and Figure 4. […] Further alternatives to the R1 group (Figure S2), including reducing the linker length by a single [compound left out] […] In addition, N-methylation of the amide portion (ESC100960) also results in loss of activity. This could indicate a role for the NH as a hydrogen bond donor or that the substitution could adversely affect the conformation of the adjacent oxo-acetic acid group.

T1 sequence (Q8WZA2 whole entry): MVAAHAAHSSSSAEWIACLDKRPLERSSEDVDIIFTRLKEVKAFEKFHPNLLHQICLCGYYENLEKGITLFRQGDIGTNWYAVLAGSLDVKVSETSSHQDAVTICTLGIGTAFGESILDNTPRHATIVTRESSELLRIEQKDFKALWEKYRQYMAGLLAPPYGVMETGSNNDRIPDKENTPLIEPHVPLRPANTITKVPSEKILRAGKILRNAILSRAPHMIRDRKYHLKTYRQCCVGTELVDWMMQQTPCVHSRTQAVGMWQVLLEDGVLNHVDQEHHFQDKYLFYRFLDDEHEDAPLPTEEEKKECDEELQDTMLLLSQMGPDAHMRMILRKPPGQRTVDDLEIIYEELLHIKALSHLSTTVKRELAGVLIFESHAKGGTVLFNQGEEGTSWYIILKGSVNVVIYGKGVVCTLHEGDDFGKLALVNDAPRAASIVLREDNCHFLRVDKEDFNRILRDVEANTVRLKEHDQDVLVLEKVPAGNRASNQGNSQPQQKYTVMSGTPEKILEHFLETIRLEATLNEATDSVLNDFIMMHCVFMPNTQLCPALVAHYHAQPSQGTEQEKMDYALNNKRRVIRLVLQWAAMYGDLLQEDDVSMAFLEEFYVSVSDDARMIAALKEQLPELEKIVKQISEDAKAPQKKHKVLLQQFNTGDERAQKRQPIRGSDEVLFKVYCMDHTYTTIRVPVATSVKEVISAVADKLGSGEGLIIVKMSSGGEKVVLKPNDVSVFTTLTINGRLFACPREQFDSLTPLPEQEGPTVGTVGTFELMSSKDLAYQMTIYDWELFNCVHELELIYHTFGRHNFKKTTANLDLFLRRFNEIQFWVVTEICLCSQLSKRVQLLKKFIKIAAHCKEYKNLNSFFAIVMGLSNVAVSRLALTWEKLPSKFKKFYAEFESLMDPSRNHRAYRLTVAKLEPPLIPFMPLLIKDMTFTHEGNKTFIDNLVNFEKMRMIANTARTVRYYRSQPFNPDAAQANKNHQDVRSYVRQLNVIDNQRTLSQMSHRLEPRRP

Row | SMILES | IC50
1 | Cc1ccc(C(=O)c2oc3ccc(CNC(=O)C(=O)O)cc3c2C(C)(C)C)cc1 [SY006] | 22.4 µM
2 | CCc1c(C(=O)c2ccc(C)cc2)oc2ccc(CNC(=O)C(=O)O)cc12 [SY007] | 5.01 µM

Continued, values first:

Row | IC50 | SMILES
3 | 31.6 µM | Cc1ccc(C(=O)c2oc3ccc(CNC(=O)C(=O)O)cc3c2C(C)C)cc1 [SY009]
4 | 7.94 µM | Cc1c(C(=O)c2cccc(Br)c2)oc2ccc(CNC(=O)C(=O)O)cc12 [ESC1000906]
5 | 7.94 µM | Cc1ccc(C(=O)c2oc3ccc(CNC(=O)C(=O)O)cc3c2C)cc1 [SY000]
